Values quoted from earlier work as cited in patent US20170056386A1, “TOPICAL ANTIFUNGAL COMPOSITION FOR TREATING ONYCHOMYCOSIS” (Polichem SA, priority 2014, published 2017).

Test system: onychomycosis
Conditions: oral administration

SMILES: CN(C/C=C/C#CC(C)(C)C)Cc1cccc2ccccc12 [terbinafine]
- Complete cure (patients): 38%
